A short description of this data set: pharmacokinetic studies (PK) of solid dispersions in fasted, famotidine or pentagastrin pre-treated dogs. It is filed as in vivo. Particulars: above pH 2.5; dogs following pre-treatment with famotidine (FIG. 1). The procedure:
Several rounds of pharmacokinetic studies (PK) were performed and included four diverse solid dispersions comprising 50 wt % amorphous (R)—N-((4-methoxy-6-methyl-2-oxo-1,2-dihydropyridin-3-yl)methyl)-2-methyl-1-(1-(1-(2,2,2-trifluoroethyl)piperidin-4-yl)ethyl)-1H-indole-3-carboxamide and PVP, PVP-PA with NaHCO3, HPMC, and HPMC-AS polymer systems, in fasted, famotidine treated dogs at a 30 mg/kg dose.
All solid dispersions were prepared as aqueous suspensions at 60 mg/mL in the toxicology vehicle, 0.5% MC/0.1% Tween 80 and does with 30 minutes of preparation. All dogs tested were carried over from study to study.

Turning to `COc1cc(C)[nH]c(=O)c1CNC(=O)c1c(C)n([C@H](C)C2CCN(CC(F)(F)F)CC2)c2ccccc12` [(R)—N-((4-methoxy-6-methyl-2-oxo-1,2-dihydropyridin-3-yl)methyl)-2-methyl-1-(1-(1-(2,2,2-trifluoroethyl)piperidin-4-yl)ethyl)-1H-indole-3-carboxamide], the absorption result was “reduced absorption”.

The values are drawn from patent US20190381025A1, “SOLID DISPERSIONS OF (R)-N-((4-METHOXY-6-METHYL-2-OXO-1,2-DIHYDROPYRIDIN-3-YL)METHYL)-2-METHYL-1-(1-(1-(2,2,2-TRIFLUOROETHYL)PIPERIDIN-4-YL)ETHYL)-1H-INDOLE-3-CARBOXAMIDE” (Constellation Pharmaceuticals, Inc., priority 2017, published 2019).
